Reference: patent US8999891B2, “Method for controlling weeds in turf” (Dow AgroSciences LLC, priority 2013, dated 2015)

Columns and labels:
White Clover (TRFRE) = assay: Greenhouse post-emergence weed control, visual percent control; format: in vivo, Trifolium repens; details: 1 week after treatment, florasulam 0.001 g ai/ha, fluroxypyr 0.01 g ae/ha, 2,4-D 0.11 g ae/ha, alone or in the mixture, 0 = no control, 100 = complete kill
From the text: Studies were applied post-emergence to broadleaf weeds reared from seed in 5″ square pots in 80% mineral/20% grit field soil. Stage of growth of species at application: EPHSU in the 3 to 5 leaf stage and TRFRE in the 3rd tri-foliate stage. Post-emergence trial design was a replicated block, one species per pot, 4 replicate pots per treatment. Post-emergence applications were made to the pot with a tracksprayer calibrated to 187 liters per hectare (L/ha), 40 pounds per square inch (PSI) at 1.9 miles per hour (mph) using an 8003E Teejet nozzle covering both soil and foliage. Trial was sub-irrigated daily. Active weed growth was maintained throughout the study period. Weed control of each species in the post-emergence study was assessed at 1, 2 and 3 weeks after treatment. Control was determined visually by comparing treated and untreated pots and scored on a 0 to 100 percent scale where 0 corresponds to no control and 100 corresponds to complete kill.
In the foregoing examples, the following equation was used to calculate the expected activity of mixtures containing three herbicidal active ingredients:
(§1) [formula] A=observed efficacy of a first active ingredient at the same concentration as used in the mixture. B=observed efficacy of a second active ingredient B at the same concentration as used in the mixture. C=observed efficacy of a third active ingredient C at the same concentration as used in the mixture. The following abbreviations are used in the tables: g ai/ha=grams active ingredient per hectare g ae/ha=grams acid equivalent per hectare DAA=days after application.

Ground Ivy (GLEHE) = assay: Field study in turf, average % weed control; format: in vivo, Glechoma hederacea
From the text: (§2) Replicated applications were made to small plots (i.e. 5′×5′, 3′×10′) using a CO2 backpack sprayer. Florasulam SC (EF-1343), fluoroxypyr (Starane® Ultra) and 2,4-D (DMA® 4) are produced by Dow AgroSciences LLC, Indianapolis, Ind. Applications at each site were made at typical postemergent herbicide timing for that particular study location. Applications were generally timed for peak dandelion bloom in the northern cool-season turf market and throughout the year in the warm-season turf market where winter and summer annual and perennial weeds are targeted. Weed control evaluations were made as percent weed cover per plot and converted to percent control based on weed levels in the untreated control. Evaluations were made at various timing after application for eight to ten weeks.
as §1

Dandelion (TAROF) = assay: Field study in turf, average % weed control; format: in vivo, Taraxacum officinale; details: 55 DAA, florasulam 5.2 g ai/ha, fluroxypyr 52.9 g ae/ha, 2,4-D 520 g ae/ha, alone or in the mixture
From the text: as §2, §1

White Cover (TRFRE) = assay: Field study in turf, average % weed control; format: in vivo, Trifolium repens; details: 62 DAA, florasulam 5.2 g ai/ha, fluroxypyr 52.9 g ae/ha, 2,4-D 520 g ae/ha, alone or in the mixture
From the text: as §2, §1

[1] = 28 DAA, florasulam 2.3 g ai/ha, fluroxypyr 26.5 g ae/ha, 2,4-D 260.6 g ae/ha alone (260.0 in the mixture)
[2] = 56 DAA, florasulam 5.2 g ai/ha, fluroxypyr 52.9 g ae/ha, 2,4-D 520 g ae/ha, alone or in the mixture

SMILES | Observed percent control (White Clover (TRFRE)) | Observed Average % Weed Control (Ground Ivy (GLEHE); [1]) | Observed Average % Weed Control (Ground Ivy (GLEHE); [2]) | Observed Average % Weed Control (Dandelion (TAROF)) | Observed Average % Weed Control (White Cover (TRFRE))
O=C(O)COc1ccc(Cl)cc1Cl [2,4-D, (2,4-dichlorophenoxy)acetic acid] | 1.7% | 41.0% | 41.7% | 45.6% | 20.0%
COc1ncc(F)c2nc(S(=O)(=O)Nc3c(F)cccc3F)nn12 [Florasulam, 2′,6′,8-trifluoro-5-methoxy[1,2,4]triazolo[1,5-c]pyrimidine-2-sulfonanilide] | 10.3% | 0.0% | 0.0% | 25.0% | 23.8%
Nc1c(Cl)c(F)nc(OCC(=O)O)c1Cl [Fluroxypyr, [(4-amino-3,5-dichloro-6-fluoro-2-pyridinyl)oxy]acetic acid] | 35% | 0.0% | 0.0% | 14.3% | 31.3%
